Measured values: patent publication US20240002846A1, “COMPOSITIONS AND METHODS FOR THE DIAGNOSIS AND TREATMENT OF ITCH” (Duke University, priority 2020, published 2024)
Entries after “also recorded” stand apart in the source; their conditions may differ.

Tests used:
[1] = target: T1, hTRPV4-121AAWAA125 (Homo sapiens, UniProt Q9HBA0, K121A/K125A/R122A/R124A); test: Inside-out patch-clamp, hTRPV4-121AAWAA125; assay type: biochemical; details: 5 μM LPC 18:1
T1 construct: expressed in transfected cells; host or cells: HEK293
Method: (§1) Cell culture and transfection. HEK293 cells (ATCC® CRL-1573) were cultured on poly-D-lysine coated coverslips in 24-well plate containing DMEM media with high-Glucose (Gibco, Gaithersburg, MD) supplemented with 10% fetal bovine serum (FBS, HyClone Laboratories, Logan, UT) and 100 U/mL of penicillin/streptomycin (Gibco, Gaithersburg, MD). Cell cultures were maintained with 5% of CO2 in a humidified incubator at 37° C. HEK cells were transfected with rat or human wild type or mutant TRPV4 channels with EGFP or YFP coupled to their C-termini (1.5 μg of plasmid for excised patch clamp and Ca^2+ imaging and 200 ng for single-channel experiments). […]
(§2) Electrophysiology. Currents were recorded using the inside-out configuration of the patch-clamp technique (Hamill et al. Pflugers Arch. 1981, 391, 85-100). […] Mean current values in response to GSK1016790A or LPC 18:1 were measured after channel activation had reached the steady-state (˜3 min). […] Currents were low-pass filtered at 2 kHz and sampled at 10 kHz with an EPC 10 amplifier (HEKA Elektronik) and were plotted and analyzed with Igor Pro (Wavemetrics Inc.).

[2] = target: T2, hTRPV4 (Homo sapiens, UniProt Q9HBA0); test: Inside-out patch-clamp, hTRPV4; assay type: biochemical; details: 5 μM LPC 18:1; WT-hTRPV4
T2 construct: expressed in transfected cells; host or cells: HEK293 (ATCC CRL-1573)
Method: as §1, §2

[3] = target: T3, hTRPV4-R269H (Homo sapiens, UniProt Q9HBA0, R269H); test: Inside-out patch-clamp, hTRPV4-R269H; assay type: biochemical; details: 5 μM LPC 18:1
T3 construct: expressed in transfected cells; host or cells: HEK293
Method: as §1, §2

[4] = system: extracellular release of miR-146a; test: Extracellular release of miR-146a from cultured human keratinocytes (RT-qPCR); assay type: cell-based
Method: Primary human keratinocytes were cultured as previously described (Chen et al. J. Biol. Chem. 2016, 291, 10252-10262). In brief, surgically discarded foreskin samples, obtained from Duke Children's Hospital in accordance to institutionally approved IRB protocol, were incubated with Dispase (Gibco, Gaithersburg, MD, 4 U/mL) for 12-16 h at 4° C. followed by 0.05% trypsin (Gibco, Gaithersburg, MD) for 10-20 min at 37° C. Cells were maintained in keratinocyte serum-free media (Invitrogen, Waltham, MA) with 5% CO2 at 37° C. and used at passage 2-3.
Measurement of released vesicles and extracellular miR-146a from cultured keratinocytes or sera Medium for the cultured keratinocytes was replaced with serum-free medium 2 h before LPC stimulation. Fifteen minutes after LPC, the supernatant of the cells was harvested and subjected to two steps of centrifugation (i) 300 g for 5 min to eliminate remaining cells, (ii) 16,000 g for 30 min to eliminate cell debris and apoptotic bodies. Finally, cell-free supernatants were further purified using a Vesicular Isolation kit (Invitrogen, Waltham, MA) according to the manufacturer's instructions, with final product resuspended in ice-cold PBS. Total RNA extraction was then carried out using a Total RNA Isolation kit (Invitrogen, Waltham, MA). […]

T3 sequence (Q9HBA0 whole entry R269H): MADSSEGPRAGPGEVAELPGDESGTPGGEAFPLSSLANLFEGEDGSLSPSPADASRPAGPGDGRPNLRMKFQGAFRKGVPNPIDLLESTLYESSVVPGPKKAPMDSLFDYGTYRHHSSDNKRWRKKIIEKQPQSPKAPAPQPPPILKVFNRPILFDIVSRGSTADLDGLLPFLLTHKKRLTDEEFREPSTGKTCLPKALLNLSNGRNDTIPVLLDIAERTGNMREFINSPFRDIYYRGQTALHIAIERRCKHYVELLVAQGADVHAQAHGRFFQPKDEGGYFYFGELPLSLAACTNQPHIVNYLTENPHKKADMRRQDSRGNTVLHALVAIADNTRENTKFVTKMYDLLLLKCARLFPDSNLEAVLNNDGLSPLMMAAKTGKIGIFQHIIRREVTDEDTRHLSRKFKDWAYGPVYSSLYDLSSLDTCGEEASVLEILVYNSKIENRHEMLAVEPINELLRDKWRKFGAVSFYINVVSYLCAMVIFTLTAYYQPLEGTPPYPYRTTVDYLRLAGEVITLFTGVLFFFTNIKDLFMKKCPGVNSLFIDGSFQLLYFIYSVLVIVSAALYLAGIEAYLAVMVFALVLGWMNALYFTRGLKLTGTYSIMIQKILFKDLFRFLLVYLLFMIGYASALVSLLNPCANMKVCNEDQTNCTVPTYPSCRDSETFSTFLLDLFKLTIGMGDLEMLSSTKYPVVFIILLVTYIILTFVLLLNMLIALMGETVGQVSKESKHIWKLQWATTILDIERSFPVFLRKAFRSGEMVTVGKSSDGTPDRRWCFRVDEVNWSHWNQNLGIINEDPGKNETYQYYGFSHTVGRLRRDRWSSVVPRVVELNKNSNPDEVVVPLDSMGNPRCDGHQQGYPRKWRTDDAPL
T2 sequence (Q9HBA0 whole entry): as the sequence (Q9HBA0 whole entry R269H) above, with H269R counted along it
T1 sequence (Q9HBA0 whole entry K121A/R122A/R124A/K125A): as the sequence (Q9HBA0 whole entry R269H) above, with K121A, R122A, R124A, K125A, H269R counted along it

In the case of LPC 18:1, the “average activation of currents, normalized to 1 μM GSK101” value [1] is reported as 43±4%, the “average activation of currents, normalized to 1 μM GSK101” value [2] is reported as 48±6% and the “average activation of currents, normalized to 1 μM GSK101” value [3] is reported as 42±6%.

For N#CC(=C(/N)Sc1ccccc1N)/C(C#N)=C(\N)Sc1ccccc1N [U0126], the “effect of MEK inhibitor on LPC-induced release of miR-146a” value ([4]; 10 μM) was “eliminated; also recorded: abolished”.

Cc1c(C(=O)Nc2cccc(C(F)(F)F)c2)cc(-c2ccccc2)n1CCCN1CCOCC1 [HC067047] was tested, and the “effect of TRPV4 inhibitors on LPC-induced release of miR-146a” value ([4]; inhibitor 10 μM) was “completely eliminated”.
